The assay addresses T1, CFTR (Homo sapiens, UniProt P13569, DEL508-508).
T1 construct: Primary CF airway epithelial cells were obtained from the UNC Cystic Fibrosis Tissue Procurement and Cell Culture Core; host or cells: primary CF airway epithelial cells, differentiated at the air-liquid interface
As to the kind of experiment: Equivalent current assay in primary CF airway epithelial cells (NAUC, combination with 1st site corrector FDL169 or VX-809). Type of assay: cell-based. The conditions noted are these: 37° C., 24 h.

Setting [1] is: test compound 1 μM in combination with 1st site corrector FDL169 (3 μM).
The mark [2] stands for this setting: test compound 3 μM in combination with 1st site corrector FDL169 (3 μM).
The mark [3] stands for this setting: test compound 10 μM in combination with 1st site corrector FDL169 (3 μM).

We go through 20 molecules from patent publication US20230055237A1, “COMPOUNDS AND METHODS FOR THE TREATMENT OF CYSTIC FIBROSIS” (Flatley Discovery Lab, LLC, priority 2019, published 2023).

T1 sequence (P13569 with tags, fused parts or gaps DEL508-508): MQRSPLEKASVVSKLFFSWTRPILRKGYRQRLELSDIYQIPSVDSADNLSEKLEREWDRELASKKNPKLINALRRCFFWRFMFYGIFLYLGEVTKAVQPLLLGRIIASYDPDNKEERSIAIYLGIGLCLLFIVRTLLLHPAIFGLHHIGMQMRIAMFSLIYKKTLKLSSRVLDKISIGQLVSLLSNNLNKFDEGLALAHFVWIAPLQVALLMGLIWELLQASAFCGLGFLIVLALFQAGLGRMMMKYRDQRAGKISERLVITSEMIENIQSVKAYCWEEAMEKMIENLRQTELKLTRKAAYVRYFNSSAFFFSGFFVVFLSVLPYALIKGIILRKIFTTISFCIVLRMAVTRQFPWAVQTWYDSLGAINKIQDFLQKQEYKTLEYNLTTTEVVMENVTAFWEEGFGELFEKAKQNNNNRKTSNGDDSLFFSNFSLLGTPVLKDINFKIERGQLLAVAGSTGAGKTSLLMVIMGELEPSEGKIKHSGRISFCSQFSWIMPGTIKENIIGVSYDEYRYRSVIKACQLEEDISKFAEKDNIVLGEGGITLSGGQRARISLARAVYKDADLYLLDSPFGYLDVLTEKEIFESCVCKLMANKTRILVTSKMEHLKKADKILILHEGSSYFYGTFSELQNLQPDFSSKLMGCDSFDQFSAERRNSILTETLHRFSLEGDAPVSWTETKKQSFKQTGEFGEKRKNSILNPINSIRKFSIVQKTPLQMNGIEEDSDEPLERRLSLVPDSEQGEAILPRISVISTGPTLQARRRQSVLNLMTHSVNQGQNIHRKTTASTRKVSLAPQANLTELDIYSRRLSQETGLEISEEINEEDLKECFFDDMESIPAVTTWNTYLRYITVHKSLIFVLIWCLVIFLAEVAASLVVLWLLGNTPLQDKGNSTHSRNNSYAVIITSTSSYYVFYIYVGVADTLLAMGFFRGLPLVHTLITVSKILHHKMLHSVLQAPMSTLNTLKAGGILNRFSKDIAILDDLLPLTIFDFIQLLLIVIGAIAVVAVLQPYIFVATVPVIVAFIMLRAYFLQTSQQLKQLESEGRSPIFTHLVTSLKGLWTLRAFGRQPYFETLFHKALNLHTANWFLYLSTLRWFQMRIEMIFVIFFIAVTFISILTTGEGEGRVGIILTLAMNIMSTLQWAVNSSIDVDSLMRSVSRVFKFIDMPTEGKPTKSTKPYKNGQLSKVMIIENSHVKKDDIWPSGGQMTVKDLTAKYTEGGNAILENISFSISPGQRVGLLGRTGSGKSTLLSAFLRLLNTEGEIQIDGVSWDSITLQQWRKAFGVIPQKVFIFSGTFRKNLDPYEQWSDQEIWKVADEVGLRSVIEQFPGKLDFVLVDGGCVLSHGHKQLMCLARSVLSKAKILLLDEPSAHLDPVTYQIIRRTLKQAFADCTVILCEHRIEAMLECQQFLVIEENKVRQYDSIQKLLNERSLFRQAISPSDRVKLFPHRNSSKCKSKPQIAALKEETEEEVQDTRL

In the case of `O=C(O)[C@H]1[C@@H](C(=O)N(CC2CC2)c2cc(Cl)cc(Cl)c2)[C@H]2CC(F)(F)CN2[C@]12C(=O)Nc1c(Cl)cc(Cl)cc12` [Example 173], the “Nauc @ 1 μM” value under setting [1] is recorded as “+++ (NAUC “+++” refers to an observed NAUC>170% of positive control)”. For the same molecule, under setting [2], the “Nauc @ 3 μM” value was “+++ (NAUC “+++” refers to an observed NAUC>170% of positive control)”. For the same molecule, under setting [3], the “Nauc @ 10 μM” value is listed as “+ (NAUC “+” refers to an observed NAUC <140% of positive control)”.
With `CC(C)N(C(=O)[C@H]1[C@H]2CC(F)(F)CN2[C@]2(C(=O)Nc3c(Cl)cc(Cl)cc32)[C@H]1C(=O)O)c1cc(Cl)cc(Cl)c1` [Example 174], the “Nauc @ 1 μM” value under setting [1] is reported as “+++ (NAUC “+++” refers to an observed NAUC>170% of positive control)”. Moreover, the “Nauc @ 3 μM” value under setting [2] is given as “+++ (NAUC “+++” refers to an observed NAUC>170% of positive control)”. Moreover, the “Nauc @ 10 μM” value under setting [3] is “+++ (NAUC “+++” refers to an observed NAUC>170% of positive control)”.
`O=C(O)[C@H]1[C@@H](C(=O)N(c2cc(Cl)cc(Cl)c2)C2CCCC2)[C@H]2CC(F)(F)CN2[C@]12C(=O)Nc1c(Cl)cc(Cl)cc12` [Example 175]: the “Nauc @ 1 μM” value under setting [1] was “+++ (NAUC “+++” refers to an observed NAUC>170% of positive control)”. In addition, the “Nauc @ 3 μM” value under setting [2] was “+++ (NAUC “+++” refers to an observed NAUC>170% of positive control)”. For the same molecule, under setting [3], the “Nauc @ 10 μM” value was “+++ (NAUC “+++” refers to an observed NAUC>170% of positive control)”.
`CN(C(=O)[C@H]1[C@H]2CC(F)(F)CN2[C@]2(C(=O)Nc3c(Cl)cc(Cl)cc32)[C@H]1C(=O)O)c1ccccc1C(F)(F)F` [Example 176]: the “Nauc @ 1 μM” value under setting [1] is “+++ (NAUC “+++” refers to an observed NAUC>170% of positive control)”. Under setting [2], the “Nauc @ 3 μM” value was “+++ (NAUC “+++” refers to an observed NAUC>170% of positive control)”.
On to `O=C(O)[C@H]1[C@@H](C(=O)N(CC2CCCCC2)c2cc(Cl)cc(Cl)c2)[C@H]2CC(F)(F)CN2[C@]12C(=O)Nc1c(Cl)cc(Cl)cc12` [Example 177], for which, under setting [1], the “Nauc @ 1 μM” value is “+++ (NAUC “+++” refers to an observed NAUC>170% of positive control)”. Further, the “Nauc @ 3 μM” value under setting [2] is recorded as “++ (NAUC “++” refers to an observed NAUC 170-140% of positive control)”. Further, the “Nauc @ 10 μM” value under setting [3] was “++ (NAUC “++” refers to an observed NAUC 170-140% of positive control)”.
In the case of `O=C(O)[C@H]1[C@@H](C(=O)N(CC2CCCCCC2)c2cc(Cl)cc(Cl)c2)[C@H]2CC(F)(F)CN2[C@]12C(=O)Nc1c(Cl)cc(Cl)cc12` [Example 178], the “Nauc @ 1 μM” value under setting [1] is recorded as “+++ (NAUC “+++” refers to an observed NAUC>170% of positive control)”. Also, the “Nauc @ 3 μM” value under setting [2] is “+++ (NAUC “+++” refers to an observed NAUC>170% of positive control)”. Further, under setting [3], the “Nauc @ 10 μM” value is given as “++ (NAUC “++” refers to an observed NAUC 170-140% of positive control)”.
Turning to `COc1c(Cl)cc(N(C)C(=O)[C@H]2[C@H]3CC(F)(F)CN3[C@]3(C(=O)Nc4c(Cl)cc(Cl)cc43)[C@H]2C(=O)O)cc1Cl` [Example 179], the “Nauc @ 1 μM” value under setting [1] is “++ (NAUC “++” refers to an observed NAUC 170-140% of positive control)”. Moreover, under setting [2], the “Nauc @ 3 μM” value is reported as “++ (NAUC “++” refers to an observed NAUC 170-140% of positive control)”. Also, the “Nauc @ 10 μM” value under setting [3] is “+++ (NAUC “+++” refers to an observed NAUC>170% of positive control)”.
In the case of `O=C(O)[C@H]1[C@@H](C(=O)N(CC2CC2)c2ccccc2-c2ccccc2)[C@H]2CC(F)(F)CN2[C@]12C(=O)Nc1c(Cl)cc(Cl)cc12` [Example 180], the “Nauc @ 1 μM” value under setting [1] is given as “+++ (NAUC “+++” refers to an observed NAUC>170% of positive control)”. Further, the “Nauc @ 3 μM” value under setting [2] is “+++ (NAUC “+++” refers to an observed NAUC>170% of positive control)”. Moreover, the “Nauc @ 10 μM” value under setting [3] was “+ (NAUC “+” refers to an observed NAUC <140% of positive control)”.
As for `O=C(O)[C@H]1[C@@H](C(=O)N(CC2CCCC2)c2cccc(C(F)(F)F)c2)[C@H]2CC(F)(F)CN2[C@]12C(=O)Nc1c(Cl)cc(Cl)cc12` [Example 181], under setting [1], the “Nauc @ 1 μM” value is “++ (NAUC “++” refers to an observed NAUC 170-140% of positive control)”. The “Nauc @ 3 μM” value under setting [2] is “+++ (NAUC “+++” refers to an observed NAUC>170% of positive control)”.
For the molecule `CC(C)(C)CCN(C(=O)[C@H]1[C@H]2CC(F)(F)CN2[C@]2(C(=O)Nc3c(Cl)cc(Cl)cc32)[C@H]1C(=O)O)c1cc(Cl)cc(Cl)c1` [Example 182], the “Nauc @ 1 μM” value under setting [1] was “+++ (NAUC “+++” refers to an observed NAUC>170% of positive control)”. Besides, the “Nauc @ 3 μM” value under setting [2] is reported as “++ (NAUC “++” refers to an observed NAUC 170-140% of positive control)”.
As for `CC(C)(C)C(C)(C)CN(C(=O)[C@H]1[C@H]2CC(F)(F)CN2[C@]2(C(=O)Nc3c(Cl)cc(Cl)cc32)[C@H]1C(=O)O)c1cc(Cl)cc(Cl)c1` [Example 185], the “Nauc @ 1 μM” value under setting [1] was “+++ (NAUC “+++” refers to an observed NAUC>170% of positive control)”. The “Nauc @ 3 μM” value under setting [2] is “+++ (NAUC “+++” refers to an observed NAUC>170% of positive control)”. Moreover, the “Nauc @ 10 μM” value under setting [3] is given as “+ (NAUC “+” refers to an observed NAUC <140% of positive control)”.
Regarding `O=C(O)[C@H]1[C@@H](C(=O)N(CC23CC(F)(C2)C3)c2cc(Cl)cc(Cl)c2)[C@H]2CC(F)(F)CN2[C@]12C(=O)Nc1c(Cl)cc(Cl)cc12` [Example 188], the “Nauc @ 1 μM” value under setting [1] is “+++ (NAUC “+++” refers to an observed NAUC>170% of positive control)”. Moreover, under setting [2], the “Nauc @ 3 μM” value is “++ (NAUC “++” refers to an observed NAUC 170-140% of positive control)”. Also, the “Nauc @ 10 μM” value under setting [3] is “++ (NAUC “++” refers to an observed NAUC 170-140% of positive control)”.
As to `O=C(O)[C@H]1[C@@H](C(=O)N(CC2CC2)c2cccc(C3(C(F)(F)F)CC3)c2)[C@H]2CC(F)(F)CN2[C@]12C(=O)Nc1c(Cl)cc(Cl)cc12` [Example 189], the “Nauc @ 1 μM” value under setting [1] is listed as “++ (NAUC “++” refers to an observed NAUC 170-140% of positive control)”. Under setting [2], the “Nauc @ 3 μM” value was “+ (NAUC “+” refers to an observed NAUC <140% of positive control)”.
For `O=C(O)[C@H]1[C@@H](C(=O)N(CC23CC4CC(CC(C4)C2)C3)c2cc(Cl)cc(Cl)c2)[C@H]2CC(F)(F)CN2[C@]12C(=O)Nc1c(Cl)cc(Cl)cc12` [Example 194], the “Nauc @ 1 μM” value under setting [1] is given as “++ (NAUC “++” refers to an observed NAUC 170-140% of positive control)”. Also, the “Nauc @ 3 μM” value under setting [2] is given as “+++ (NAUC “+++” refers to an observed NAUC>170% of positive control)”.
Take `CN(C(=O)[C@H]1[C@H]2CC(F)(F)CN2[C@]2(C(=O)N(C)c3c(Cl)cc(Cl)cc32)[C@H]1C(=O)O)c1cc(Cl)cc(Cl)c1` [Example 200, (1′R,2′S,3R,7a′R)-5,7-dichloro-1-((3,5-dichlorophenyl)(methyl)carbamoyl)-6′,6′-difluoro-1-methyl-2-oxo-1′,2′,5′,6′,7′,7a′-hexahydrospiro[indoline-3,3′-pyrrolizine]-2′-carboxylic acid]: the “Nauc @ 1 μM” value by setting is: under setting [1], “++ (NAUC “++” refers to an observed NAUC 170-140% of positive control)”; (test compound 1 μM in combination with 1st site corrector VX-809 (3 μM)) “+++ (NAUC “+++” refers to an observed NAUC>170% of positive control)”. Moreover, the “Nauc @ 3 μM” value runs as follows: under setting [2], “++ (NAUC “++” refers to an observed NAUC 170-140% of positive control)”; (test compound 3 μM in combination with 1st site corrector VX-809 (3 μM)) “+++ (NAUC “+++” refers to an observed NAUC>170% of positive control)”. Besides, the “Nauc @ 10 μM” value reads like this: under setting [3], “++ (NAUC “++” refers to an observed NAUC 170-140% of positive control)”; (test compound 10 μM in combination with 1st site corrector VX-809 (3 μM)) “+++ (NAUC “+++” refers to an observed NAUC>170% of positive control)”.
Consider `CN(C(=O)[C@H]1[C@H]2CC(F)(F)CN2[C@]2(C(=O)N(CC3CC3)c3c(Cl)cc(Cl)cc32)[C@H]1C(=O)O)c1cc(Cl)cc(Cl)c1` [Example 201], for which the “Nauc @ 1 μM” value under setting [1] was “+ (NAUC “+” refers to an observed NAUC <140% of positive control)”. Also, under setting [2], the “Nauc @ 3 μM” value was “+ (NAUC “+” refers to an observed NAUC <140% of positive control)”.
Turning to `CN1C(=O)[C@]2(c3cc(Cl)cc(Cl)c31)[C@@H](C(=O)O)[C@@H](C(=O)N(CC1CC1)c1cc(Cl)cc(Cl)c1)[C@H]1CC(F)(F)CN12` [Example 202], the “Nauc @ 1 μM” value under setting [1] is “++ (NAUC “++” refers to an observed NAUC 170-140% of positive control)”. The “Nauc @ 3 μM” value under setting [2] is recorded as “++ (NAUC “++” refers to an observed NAUC 170-140% of positive control)”. The “Nauc @ 10 μM” value under setting [3] was “+ (NAUC “+” refers to an observed NAUC <140% of positive control)”.
On to `COCCN1C(=O)[C@]2(c3cc(Cl)cc(Cl)c31)[C@@H](C(=O)O)[C@@H](C(=O)N(CC1CC1)c1cc(Cl)cc(Cl)c1)[C@H]1CC(F)(F)CN12` [Example 203], for which the “Nauc @ 1 μM” value under setting [1] is recorded as “+ (NAUC “+” refers to an observed NAUC <140% of positive control)”. Further, the “Nauc @ 3 μM” value under setting [2] is “+ (NAUC “+” refers to an observed NAUC <140% of positive control)”.
For the molecule `CN(C)C(=O)CN1C(=O)[C@]2(c3cc(Cl)cc(Cl)c31)[C@@H](C(=O)O)[C@@H](C(=O)N(CC1CC1)c1cc(Cl)cc(Cl)c1)[C@H]1CC(F)(F)CN12` [Example 205], under setting [1], the “Nauc @ 1 μM” value is reported as “+ (NAUC “+” refers to an observed NAUC <140% of positive control)”. Further, under setting [2], the “Nauc @ 3 μM” value is recorded as “++ (NAUC “++” refers to an observed NAUC 170-140% of positive control)”. The “Nauc @ 10 μM” value under setting [3] is reported as “++ (NAUC “++” refers to an observed NAUC 170-140% of positive control)”.
Turning to `CN1C(=O)[C@]2(c3cc(Cl)cc(Cl)c31)[C@@H](C(=O)O)[C@@H](C(=O)N(CC(C)(C)C)c1cc(Cl)cc(Cl)c1)[C@H]1CC(F)(F)CN12` [Example 207], the “Nauc @ 1 μM” value under setting [1] was “++ (NAUC “++” refers to an observed NAUC 170-140% of positive control)”. The “Nauc @ 3 μM” value under setting [2] is reported as “++ (NAUC “++” refers to an observed NAUC 170-140% of positive control)”.
